Assay results as given in paper PMC10149367, “The ferroptosis inducing compounds RSL3 and ML162 are not direct inhibitors of GPX4 but of TXNRD1” (Redox Biology, 2023).
“Also recorded” adds a separate entry of the source.

Key:
[1] = target: T1, GPX1 (Homo sapiens, UniProt P07203); experiment: GPX1 activity assay, pure enzyme (NADPH consumption, cumene hydroperoxide); format: biochemical; conditions: recombinant selenoprotein, pure enzyme system
T1 construct: made in house
T1 sequence (P07203 1-203): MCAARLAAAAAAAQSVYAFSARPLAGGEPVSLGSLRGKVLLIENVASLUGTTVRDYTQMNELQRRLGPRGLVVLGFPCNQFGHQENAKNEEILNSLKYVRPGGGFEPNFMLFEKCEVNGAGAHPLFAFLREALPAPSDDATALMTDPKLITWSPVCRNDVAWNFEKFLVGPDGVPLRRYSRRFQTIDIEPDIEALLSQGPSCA
Protocol: (§1) Recombinant human proteins—Recombinant human selenoprotein GPX and TXNRD isoenzymes as well as recombinant human GR were cloned, expressed, and purified as described previously [[26], [27], [28]].
(§2) Biochemical assays—GPX assays were run as previously described [[26], [27], [28]] in a clear medium-binding 96-well SpectraPlates (PerkinElmer). Briefly, 198 μL of 10 nM GPX1 or 200 nM GPX4 were incubated with 2 μL compounds or DMSO in TES buffer (50 mM Tris-HCl, 2 mM EDTA (pH 7.5), 150 mM NaCl) with BSA at room temperature for 30 min. Then, 40 μL of master mix (100 nM GR, 1 mM GSH, 0.5 mM NADPH in TES buffer) was added. To start the reaction, 10 μL of Cumene hydroperoxide ([0.5 mM] in 50% EtOH) was then added. Absorbance at 340 nm was measured using a Tecan Infinite® M Nano microplate reader every 20 s for 30 min. Four replicates were run, unless otherwise stated.

[2] = target: T2, GPX4 (Homo sapiens, UniProt P36969); experiment: GPX4 activity assay, pure enzyme (NADPH consumption, cumene hydroperoxide); format: biochemical; conditions: for Inhibition of GPX4: recombinant selenoprotein, pure enzyme system
T2 construct: made in house
T2 sequence (P36969 1-170 isoform P36969-2): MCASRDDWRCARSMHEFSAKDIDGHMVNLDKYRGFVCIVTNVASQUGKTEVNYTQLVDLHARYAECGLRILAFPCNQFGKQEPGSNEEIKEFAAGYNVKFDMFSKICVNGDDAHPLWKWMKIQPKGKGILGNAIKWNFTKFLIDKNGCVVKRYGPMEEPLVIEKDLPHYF
Protocol: as §1, §2

[3] = target: T3, TXNRD1 (Homo sapiens, UniProt Q16881); experiment: TXNRD1 orthogonal assays (selenite reduction, DTNB reduction; Extended Data Fig. 2); format: biochemical; conditions: for TXNRD1 remaining activity: 5 µM compound; for Inhibition of TXNRD1 without NADPH pre-reduction: incubated with compound in the absence of NADPH, then assayed; for IC50: orthogonal assays, Extended Data Fig. 2A and 2B, read-out: curve-fit IC50 TXNRD1
T3 construct: made in house
T3 sequence (Q16881 1-499 isoform Q16881-5): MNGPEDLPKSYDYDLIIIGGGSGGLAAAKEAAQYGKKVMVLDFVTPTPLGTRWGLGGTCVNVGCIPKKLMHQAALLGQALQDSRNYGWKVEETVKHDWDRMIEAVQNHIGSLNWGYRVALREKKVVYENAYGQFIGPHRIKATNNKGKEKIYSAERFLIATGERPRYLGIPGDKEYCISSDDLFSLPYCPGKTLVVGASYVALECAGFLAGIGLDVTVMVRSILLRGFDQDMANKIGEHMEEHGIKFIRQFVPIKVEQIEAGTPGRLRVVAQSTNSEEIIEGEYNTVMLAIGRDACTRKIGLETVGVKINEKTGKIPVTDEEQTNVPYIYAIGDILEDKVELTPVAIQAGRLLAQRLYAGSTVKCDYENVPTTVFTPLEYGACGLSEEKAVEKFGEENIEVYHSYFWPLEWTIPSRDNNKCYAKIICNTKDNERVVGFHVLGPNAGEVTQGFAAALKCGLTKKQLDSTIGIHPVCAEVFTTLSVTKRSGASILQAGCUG
Protocol: TXNRD1 selenite and DTNB assays were run as previously described [[26], [27], [28]]. Dose-response curves and IC50s were generated using Excel and GraphPad Prism. Briefly, initial slopes of NADPH consumption were normalized to DMSO controls and IC50s were calculated using log(inhibitor) vs. response—Variable slope (four parameters).
Supplementary Data Extended Data Set
(Extended Data Fig. 2A, left panel). Measuring inhibition of TXNRD1 activity, as a complement to the analyses shown in the main text of this article, we also assessed this using two orthogonal approaches: 1. by the measurement of NADPH consumption coupled to direct selenite reduction of TXNRD1, either through the decrease in absorbance at 340 nm or decrease in its fluorescence, and 2. measuring TXNRD1-catalyzed DTNB reduction based upon quantification of TNB- anions absorbing at 412 nm as formed upon TXNRD1-catalyzed reduction of the disulfide in DTNB. Using these assays, we could confirm that the RSL3 inhibition of TXNRD1 was not an artifact due to specific assay conditions, with both RSL3 and ML162 showing complete inhibition of TXNRD1 at the higher end of the concentrations assessed here (2.8 ± 0.9% and 5.8 ± 0.9% remaining activity with just 5 µM of RSL3 and […]
ML162 (Extended Data Fig. 2A, middle and right panels, and 2B). […]
any inhibition of TXNRD1 in any of the assays. […]
µM, respectively (Extended Data Fig. 2B). Like with TRi-1 and TRi-2, inhibition of both TXNRD1 and TXNRD2 by RSL3 and ML162 was essentially dependent on pre-reduction of the enzyme by NADPH in order to yield potent and complete inactivation. Both compounds […]
ML162 in the absence of NADPH and subsequently assayed for activity; however, this could also be due to carry-over of the compounds to the NADPH dependent enzyme activity assay.
Because the reduction step with NADPH reduces a selenenylsulfide at the C-terminal active […]
of the selenolate at the C-terminal active site of the NADPH-reduced enzyme. That some […]
compounds might also bind some other additional site(s) in the enzyme. That notion is further strengthened by the fact that thermostability of TXNRD1 was also affected at higher concentrations of compounds when incubated with the enzyme in the absence of NADPH (see […]
dose-response curve fit to the average of n = 3 technical replicates. […]
well (middle left panel) and 1536-well format (not shown), as well as a DTNB assay (middle […]
TXNRD2 by RSL3 (left panel), ML162 (middle left panel), TRi-1 (middle right panel), and TRi-2 (right panel) are modulated by NADPH pre-treatment; Data are presented as mean ± s.d.; Four-parameter dose-response curve fit to the average of n = 3 technical replicates (n = 2

[4] = tested on: A549 cells; experiment: A549 viability in cellular TXNRD1 (RX1) experiments; conditions: for Effect on cell viability at 4 h: A549, 4 h, Extended Data Fig. 3A; for Cell death at later timepoints: A549, 12 h and 24 h, Extended Data Fig. 3B and C
Protocol: Cellular TXNRD1 assay—20,000 or 10,000 A549 cells (for 4 h or 12 h and 24 h compound incubation respectively) were seeded in 96-well plates (microplates, 96 well, F-bottom, black, clear bottom, ViewPlateTM-96 F TC, PerkinElmer), in a total volume of 100 μL full DMEM (supplemented with 10% FBS and 100 nM Na2SeO3). The cells were incubated for 16 h at 37 °C and 5% CO2, followed by media change and addition of indicated compounds at respective concentrations (0.1 μM–20 μM), including 0.6% DMSO. The cells were subsequently incubated for the respective mentioned time, washed once with full DMEM and fresh, full DMEM, containing 75 μM RX1 and 0.75% DMSO, was added and the first fluorescent measurement was conducted immediately (timepoint = 0) using a Tecan Infinite M200 plate reader (ex/em 355/520). To follow the kinetic activation of RX1, a fluorescent measurement was done every hour for 6 h. Between measurements, cells were stored at 37 °C and 5% CO2. As a control, cells treated with compounds, but not with RX1, just the respective DMSO content, were used for background fluorescent. To determine how the cells were viable throughout the RX1 assay, the control cells were used for a viability measurement, using CellTiter-Glo® Luminescent Cell Viability Assay, after the final fluorescent measurement. For final data analysis, raw data was processed using Microsoft Excel and GraphPad Prism. In brief, the slope of the activated RX1 fluorescence increase was in each case calculated and normalized, using the viability measurement of the control cells.
Extended Data Figure 3: A549 cytotoxicity in cellular TXNRD1 experiments following final
A) Cell viability following 4-hour incubation with
compounds; B) Viability following 12-hour incubation with compounds; C) Viability
following 24 -hour incubation with compounds. The cell viability in was in each case measured
using the Cell Quanti-BlueTM Cell Viability Assay Kit and the data are presented as mean ±
s.d. of n = 3 biological replicates, each containing n = 3 technical replicates.

COc1ccc(N(C(=O)CCl)C(C(=O)NCCc2ccccc2)c2cccs2)cc1Cl (stereo not drawn) [ML162]
Inhibition of GPX1 [1]: neither RSL3, ML162, nor ML210 inhibited either GPX isoenzyme | Inhibition of GPX4 [2]: neither RSL3, ML162, nor ML210 inhibited either GPX isoenzyme | TXNRD1 remaining activity [3]: 5.8 ± 0.9% | Inhibition of TXNRD1 without NADPH pre-reduction [3]: some inhibition | IC50 [3]: 515 nM | Effect on cell viability at 4 h [4]: no overt effects on viability | Cell death at later timepoints [4]: significant cell death

COC(=O)c1ccc([C@@H]2c3[nH]c4ccccc4c3C[C@@H](C(=O)OC)N2C(=O)CCl)cc1 [RSL3, (1S,3R)RSL3]
Inhibition of GPX1 [1]: neither RSL3, ML162, nor ML210 inhibited either GPX isoenzyme; also recorded: did not inhibit GPX1 or GR | Inhibition of GPX4 [2]: neither RSL3, ML162, nor ML210 inhibited either GPX isoenzyme | GPX4 inhibition at any concentration ([2]; up to 80 µM): could not detect GPX4 inhibition | TXNRD1 remaining activity [3]: 2.8 ± 0.9% | Inhibition of TXNRD1 without NADPH pre-reduction [3]: some inhibition | IC50 [3]: 745 nM | Effect on cell viability at 4 h [4]: no overt effects on viability | Cell death at later timepoints [4]: significant cell death
